# Data as given in patent publication US20180251495A1, “Skin-Penetrating Peptides and Compositions and Methods of Use Thereof” (The Regents of the University of California, priority 2015, published 2018).
# Where two headings read alike, the source gives them in different places. Where a SMILES comes first, the peptide text is derived from it. Bridges are numbered along the chain shown (N, C = ends). Where no end group is shown, it is not given here.
# What was measured:
# [1] = tested on: HEKa cells (human adult epidermal keratinocytes); test: MTT cytotoxicity assessment in keratinocytes; type: cell-based; settings: overnight incubation, MTT
# Protocol: (§1) HEKa cells were cultured in 1× keratinocyte Serum-Free Medium supplemented with 25 U/mL penicillin, 25 μg/mL streptomycin, and 50 μg/mL neomycin. Cultures were grown at 37° C. with 5% CO2. The cytotoxicity of SPPs was assessed using the MTT Cell Proliferation Assay (ATCC, Manassas, Va.). HEKa cells were seeded in 96-well microplates (Corning Inc., Corning, N.Y.) at a density of 5000 cells/well. Cultures were allowed to grow until they reached ˜80% confluency. Cells were then incubated with 200 μL of 10, 5, or 2.5 mg/mL of selected SPPs in media. The pH was adjusted to afford complete dissolution of peptides. Media only was used as a negative control, and media or SPP formulations without cells was used to subtract background. Cytotoxicity was assessed after overnight incubation. Viability was determined according to the manufacturer's recommended protocol using a SAFIRE, XFLUOR4, V4.50 microplate reader (Tecan Group Ltd, Morrisville, N.Y.).
# (§2) To assess the potential for skin toxicity, SPPs were incubated with HEKa cells overnight and % viability was determined. HEKa cells were used since keratinocytes are the primary cell-type in the skin, and therefore, represent a good estimate of the potential for skin irritation.
# [2] = In vitro skin permeation of radiolabelled SPPs in Franz diffusion cells; type: in vitro ADME, porcine
# Protocol: Test formulations were loaded and incubated as described.
# The skin penetrating ability of the selected heptamer (SP7-1 through SP7-5) SPPs was evaluated in comparison with SPACE™. […] Radiolabelled peptides were loaded on Franz diffusion cells (FDCs) and incubated at 37° C. with moderate stirring. After 24 hours, the various skin layers were harvested, dissolved and analyzed using a scintillation counter to determine the amount of peptide.
# [3] = for solubility in PBS: PBS pH 8.0
# [4] = MTT cytotoxicity assessment in keratinocytes; type: cell-based, human; settings: human, HEKa cells (adult epidermal keratinocytes); HEKa cells exposed to 5 mg/mL peptide in solution
# Protocol: as §1, §2
# [5] = molecular target: human keratin (human); test: batch affinity chromatography, peptide on Toyopearl resin, human keratin in solution, Langmuir fit
# [6] = molecular target: human keratin (human); test: batch adsorption isotherm (affinity chromatography): peptide coupled to Toyopearl AF-Epoxy-650 resin, human keratin in PBS pH 7.4 in solution, Langmuir fit
# [7] = peptide amount after 24 hours, 37° C.
Molecule,toxicity to HEKa cells [1],"Skin permeation, Dermis [2, 7]","Skin permeation, Receptor [2, 7]","Skin permeation, SC + Epidermis [2, 7]",Experimental Qmax [5],Kd [5],Kd [6],further results
"C[C@H](N)C(=O)N[C@H]1CSSC[C@@H](C(=O)NCC(=O)O)NC(=O)[C@H](CC(N)=O)NC(=O)[C@H](CCCNC(=N)N)NC(=O)CNC(=O)[C@H]([C@@H](C)O)NC(=O)[C@H](Cc2c[nH]cn2)NC(=O)[C@H]([C@@H](C)O)NC1=O [SP6-1, ACTHTGRNCG] (H-ACTHTGRNCG-OH; disulfide 2-9; N-terminus and C-terminus assumed)",no observable toxicity,–,–,–,–,–,–,toxicity to HEKa cells ([1]; listed as hexamer): non-toxic at concentrations as high as 10 mg/mL
"CC(C)C[C@@H]1NC(=O)[C@H]([C@@H](C)O)NC(=O)[C@H](C)NC(=O)[C@H](CO)NC(=O)[C@@H](NC(=O)[C@H](C)N)CSSC[C@@H](C(=O)NCC(=O)O)NC(=O)[C@H](CO)NC(=O)[C@H](Cc2c[nH]cn2)NC(=O)[C@H](CCC(N)=O)NC1=O [SP7-1, ACSATLQHSCG] (H-ACSATLQHSCG-OH; disulfide 2-10; N-terminus and C-terminus assumed)",only toxic when at 10 mg/mL,149.7 ± 5.6 μg/cm^2,42.4 ± 8.5 μg/cm^2,819.2 ± 62.2 μg/cm^2,–,–,–,pH adjusted to achieve complete solubility ([3]; PBS): 8.5
"CC(C)C[C@@H]1NC(=O)[C@H](CO)NC(=O)[C@@H](NC(=O)[C@H](C)N)CSSC[C@@H](C(=O)NCC(=O)O)NC(=O)[C@H](CC(N)=O)NC(=O)[C@H](Cc2c[nH]c3ccccc23)NC(=O)[C@H](CC(N)=O)NC(=O)[C@H](C(C)C)NC(=O)[C@H]([C@@H](C)O)NC1=O [SP7-2, ACSLTVNWNCG] (H-ACSLTVNWNCG-OH; disulfide 2-10; N-terminus and C-terminus assumed)",–,166.7 ± 45.2 μg/cm^2,65.0 ± 14.1 μg/cm^2,774.0 ± 110.2 μg/cm^2,–,–,–,"toxicity to HEKa cells ([1]; listed as SP-2): some toxicity for all concentrations tested, however, the results were not statistically significant; solubility in PBS [3]: did not give any solubility problems"
"CC(C)C[C@@H]1NC(=O)[C@@H](NC(=O)[C@H](C)N)CSSC[C@@H](C(=O)NCC(=O)O)NC(=O)[C@H](C)NC(=O)[C@H](CC(N)=O)NC(=O)[C@H](Cc2c[nH]cn2)NC(=O)[C@H](CC(N)=O)NC(=O)[C@H](C(C)C)NC(=O)[C@H](CO)NC1=O [SP7-3, ACLSVNHNACG] (H-ACLSVNHNACG-OH; disulfide 2-10; N-terminus and C-terminus assumed)",significantly toxic (p <0.001) at only 1 mg/mL,39.5 ± 25.4 μg/cm^2,16.9 ± 11.3 μg/cm^2,759.9 ± 73.4 μg/cm^2,–,–,–,solubility in presence of CsA ([3]; in presence of CsA): could not be fully solubilized
"C[C@H](N)C(=O)N[C@H]1CSSC[C@@H](C(=O)NCC(=O)O)NC(=O)[C@H](C)NC(=O)[C@H](CC(N)=O)NC(=O)[C@H](CCCNC(=N)N)NC(=O)CNC(=O)[C@H]([C@@H](C)O)NC(=O)[C@H](CO)NC(=O)[C@H]([C@@H](C)O)NC1=O [SP7-4, ACTSTGRNACG] (H-ACTSTGRNACG-OH; disulfide 2-10; N-terminus and C-terminus assumed)",significantly toxic (p <0.001) at only 1 mg/mL,53.7 ± 31.1 μg/cm^2,19.8 ± 19.8 μg/cm^2,545.2 ± 79.1 μg/cm^2,–,–,–,solubility in PBS [3]: did not give any solubility problems
"C[C@H](N)C(=O)N[C@H]1CSSC[C@@H](C(=O)NCC(=O)O)NC(=O)[C@H](CC(N)=O)NC(=O)[C@H](Cc2c[nH]cn2)NC(=O)[C@H](CC(N)=O)NC(=O)[C@H]([C@@H](C)O)NC(=O)[C@H](CO)NC(=O)[C@H](C)NC(=O)[C@H](CO)NC1=O [SP7-5, ACSASTNHNCG] (H-ACSASTNHNCG-OH; disulfide 2-10; N-terminus and C-terminus assumed)",significantly toxic (p <0.001) at only 1 mg/mL,124.3 ± 28.2 μg/cm^2,39.5 ± 8.5 μg/cm^2,759.9 ± 62.1 μg/cm^2,–,–,–,viability at 5000 µg/mL [4]: 60.1 ± 2.6%; solubility in PBS [3]: did not give any solubility problems
"C[C@H](N)C(=O)N[C@H]1CSSC[C@@H](C(=O)NCC(=O)O)NC(=O)[C@H]([C@@H](C)O)NC(=O)[C@H](CO)NC(=O)[C@H](CCCNC(=N)N)NC(=O)[C@H](C)NC(=O)[C@H](CCC(N)=O)NC(=O)[C@H](Cc2c[nH]cn2)NC(=O)[C@H](C)NC(=O)[C@H](CC(N)=O)NC1=O [SP8-1, ACNAHQARSTCG] (H-ACNAHQARSTCG-OH; disulfide 2-11; N-terminus and C-terminus assumed)",no observable toxicity,–,–,–,–,–,–,toxicity to HEKa cells ([1]; listed as octamer): non-toxic at concentrations as high as 10 mg/mL
"C[C@H](N)C(=O)N[C@H]1CSSC[C@@H](C(=O)NCC(=O)O)NC(=O)[C@H](CCC(N)=O)NC(=O)[C@H](Cc2c[nH]cn2)NC(=O)[C@H](CCC(N)=O)NC(=O)[C@H]([C@@H](C)O)NC(=O)[C@H](CO)NC(=O)CNC(=O)[C@H]([C@@H](C)O)NC1=O [SPACE™, ACTGSTQHQCG, reference compound] (H-ACTGSTQHQCG-OH; disulfide 2-10; N-terminus and C-terminus assumed)",–,–,–,–,–,–,–,"Skin permeation, Dermis [2]: 200.6 ± 59.3 μg/cm^2; Skin permeation, Receptor [2]: 96.0 ± 31.1 μg/cm^2; Skin permeation, SC + Epidermis [2]: 782.5 ± 84.7 μg/cm^2; viability at 5000 µg/mL [4]: 99.4 ± 3.9%"
ACLSVNHNACG (disulfide 2-10 (inferred)) [SP7-3 (…)],–,–,–,–,4.07 mg/mL resin,9.4 µM,423 µg/mL,–
ACTGSTQHQCG (disulfide 2-10 (inferred)) [SPACE™ peptide (…)],–,–,–,–,3.98 mg/mL resin,10.6 µM,477 µg/mL,–
ACSASTNHNCG (disulfide 2-10 (inferred)) [SP7-5 (…)],–,–,–,–,4.01 mg/mL resin,10.1 µM,456 µg/mL,–
ACSATLQHSCG (disulfide 2-10 (inferred)) [SP7-1 (…)],–,–,–,–,4.16 mg/mL resin,8.02 µM,361 µg/mL,–
ACSLTVNWNCG (disulfide 2-10 (inferred)) [SP7-2 (…)],–,–,–,–,4.09 mg/mL resin,8.73 µM,393 µg/mL,–
ACTSTGRNACG (disulfide 2-10 (inferred)) [SP7-4 (…)],–,–,–,–,3.43 mg/mL resin,15.8 µM,716 µg/mL,–
